Data from US6737383B1, “Herbicidal oxadiazolidines” (priority 1999, dated 2004).

Columns and labels:
rape = experiment: Test B pre/postemergence rape; format: in vivo, Brassica napus
Procedure, shortened: (§1)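 Response is a visual 0-to-10 score relative to untreated plants, where 0 means no effect and 10 means complete control, taken twelve to sixteen days after application. Treatments went onto soil at planting and onto foliage of 1- to 4-leaf plants, using a surfactant-containing non-phytotoxic solvent.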

morningglory = experiment: Test B pre/postemergence morningglory; format: in vivo, Ipomoea hederacea
Procedure, shortened: as §1

cocklebur = experiment: Test B pre/postemergence cocklebur; format: in vivo, Xanthium strumarium
Procedure, shortened: as §1

smallflower flatsedge = experiment: Test B flood test smallflower flatsedge; format: in vivo, Cyperus difformis
Procedure, shortened: (§2)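 Plants were grown to the 2-leaf stage before treatment with test chemical, then held in a greenhouse for twelve to sixteen days. Injury was visually rated against untreated controls on a 0–10 scale, where 0 is no effect and 10 is complete control.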

bamyardgrass = experiment: Test B flood test barnyardgrass; format: in vivo, Echinochloa crus-galli
Procedure, shortened: as §2

purple nutsedge = experiment: Test B pre/postemergence purple nutsedge; format: in vivo, Cyperus rotundus
Procedure, shortened: as §1

bedstraw = experiment: Test B pre/postemergence bedstraw; format: in vivo, Galium aparine
Procedure, shortened: as §1

duck salad = experiment: Test B flood test duck salad; format: in vivo, Heteranthera limosa
Procedure, shortened: as §2

pigweed = experiment: Test B pre/postemergence pigweed; format: in vivo, Amaranthus retroflexus
Procedure, shortened: as §1

soybean = experiment: Test B pre/postemergence soybean; format: in vivo, Glycine max
Procedure, shortened: as §1

wild oat = experiment: Test B pre/postemergence wild oat; format: in vivo, Avena fatua
Procedure, shortened: as §1

blackgrass = experiment: Test B pre/postemergence blackgrass; format: in vivo, Alopecurus myosuroides
Procedure, shortened: as §1

velvetleaf = experiment: Test B pre/postemergence velvetleaf; format: in vivo, Abutilon theophrasti
Procedure, shortened: as §1

wheat = experiment: Test B pre/postemergence wheat; format: in vivo, Triticum aestivum
Procedure, shortened: as §1

surinam grass = experiment: Test B pre/postemergence surinam grass; format: in vivo, Brachiaria decumbens
Procedure, shortened: as §1

giant foxtail = experiment: Test B pre/postemergence giant foxtail; format: in vivo, Setaria faberii
Procedure, shortened: as §1

[1] = Postemergence, Rate 125 g/ha, scale of 0 to 10 where 0 is no effect and 10 is complete control
[2] = Postemergence, Rate 250 g/ha, scale of 0 to 10, 0 is no effect, 10 is complete control
[3] = Postemergence, Rate 500 g/ha, scale of 0 to 10 where 0 is no effect and 10 is complete control
[4] = Postemergence, Rate 1000 g/ha, scale 0 to 10 (0 no effect, 10 complete control)
[5] = Preemergence, Rate 125 g/ha, scale of 0 to 10 where 0 is no effect and 10 is complete control
[6] = Preemergence, Rate 500 g/ha, scale of 0 to 10 where 0 is no effect and 10 is complete control
[7] = Rate 1000 g/ha, Preemergence, scale 0 to 10 (0 no effect, 10 complete control)
[8] = Pre-emergence, Rate 1000 g/ha, scale 0 to 10 (0 no effect, 10 complete control)
[9] = Rate 125 g/ha, under heading Pre-emergence, flood test species, visual evaluation after twelve to sixteen days
[10] = Rate 250 g/ha, Pre-emergence (flood test species), scale 0 to 10, 0 is no effect, 10 is complete control
[11] = Rate 500 g/ha, Pre-emergence section of Table B, 0 to 10 scale (0 no effect, 10 complete control)

CCOP(=O)(Cn1c(=O)on(C(=O)N(c2ccc(F)cc2)C(C)C)c1=O)OCC [Compound 587]
2: Plant response rating, Rape (rape; [7]) | Bedstraw plant response rating (bedstraw; [6]) | Redroot pigweed plant response rating (pigweed; [6]) | Soybean plant response rating (soybean; [6]) | Plant response rating, Soybean (soybean; [7]) | Wild oats plant response rating (wild oat; [5]) | Velvetleaf plant response rating (velvetleaf; [4]) | Velvetleaf plant response rating (velvetleaf; [6]) | Plant response rating, Giant foxtail (giant foxtail; [3])
5: B. signalgrass plant response rating (surinam grass; [4]) | B. signalgrass plant response rating (0 to 10 scale, 0 is no effect, 10 is complete control) (surinam grass; Preemergence, Rate 250 g/ha)
4: Plant response rating, Morningglory (morningglory; [1]) | Plant response rating, Soybean (soybean; [1]) | Plant response rating, Velvetleaf (velvetleaf; [7]) | Giant foxtail plant response rating (giant foxtail; [4])
6: Morningglory plant response rating (morningglory; [2]) | Soybean plant response rating (soybean; [2]) | Plant response rating, Soybean (soybean; [3]) | Soybean plant response rating (soybean; [4]) | Plant response rating, Blackgrass (blackgrass; [3]) | Blackgrass plant response rating (0 to 10 scale) (blackgrass; Preemergence, Rate 250 g/ha)
1: Rape plant response rating (rape; [6])
0: Plant response rating, Rape (rape; [1]) | Rape plant response rating (rape; [2]) | Plant response rating, Rape (rape; [3]) | Rape plant response rating (rape; [4]) | Rape plant response rating (rape; [5]) | Morningglory plant response rating (morningglory; [5]) | Morningglory plant response rating (morningglory; [6]) | Plant response rating, Cocklebur (cocklebur; [1]) | Cocklebur plant response rating (cocklebur; [2]) | Plant response rating, Cocklebur (cocklebur; [3]) | Cocklebur plant response rating (cocklebur; [4]) | Cocklebur plant response rating (cocklebur; [5]) | Cocklebur plant response rating (0 to 10 scale) (cocklebur; Preemergence, Rate 250 g/ha) | Cocklebur plant response rating (cocklebur; [6]) | Plant response rating, Cocklebur (cocklebur; [7]) | S. Flatsedge plant response rating (smallflower flatsedge; [8]) | S. Flatsedge plant response rating (0 to 10 scale, 0 is no effect, 10 is complete control) (smallflower flatsedge; [9]) | S. Flatsedge plant response rating (smallflower flatsedge; [10]) | S. Flatsedge plant response rating (smallflower flatsedge; [11]) | Barnyardgrass plant response rating (bamyardgrass; [8]) | Barnyardgrass plant response rating (0 to 10 scale, 0 is no effect, 10 is complete control) (bamyardgrass; [9]) | Barnyardgrass plant response rating (bamyardgrass; [10]) | Barnyardgrass plant response rating (bamyardgrass; [11]) | Plant response rating, Nutsedge (purple nutsedge; [1]) | Nutsedge plant response rating (purple nutsedge; [2]) | Plant response rating, Nutsedge (purple nutsedge; [3]) | Nutsedge plant response rating (purple nutsedge; [4]) | Nutsedge plant response rating (purple nutsedge; [5]) | Nutsedge plant response rating (purple nutsedge; [6]) | Plant response rating, Nutsedge (purple nutsedge; [7]) | Bedstraw plant response rating (bedstraw; [5]) | Ducksalad plant response rating (duck salad; [8]) | Ducksalad plant response rating (0 to 10 scale, 0 is no effect, 10 is complete control) (duck salad; [9]) | Ducksalad plant response rating (duck salad; [10]) | Ducksalad plant response rating (duck salad; [11]) | Plant response rating, Redroot pigweed (pigweed; [1]) | Redroot pigweed plant response rating (pigweed; [2]) | Plant response rating, Redroot pigweed (pigweed; [3]) | Redroot pigweed plant response rating (pigweed; [4]) | Redroot pigweed plant response rating (pigweed; [5]) | Soybean plant response rating (soybean; [5]) | Plant response rating, Wild oats (wild oat; [1]) | Wild oats plant response rating (wild oat; [2]) | Plant response rating, Wild oats (wild oat; [3]) | Wild oats plant response rating (wild oat; [4]) | Plant response rating, Velvetleaf (velvetleaf; [1]) | Velvetleaf plant response rating (velvetleaf; [2]) | Plant response rating, Velvetleaf (velvetleaf; [3]) | Velvetleaf plant response rating (velvetleaf; [5]) | Plant response rating, Wheat (wheat; [1]) | Wheat plant response rating (wheat; [2]) | Plant response rating, Wheat (wheat; [3]) | Wheat plant response rating (wheat; [5]) | Plant response rating, B. signalgrass (surinam grass; [1]) | B. signalgrass plant response rating (surinam grass; [2]) | Plant response rating, B. signalgrass (surinam grass; [3]) | B. signalgrass plant response rating (surinam grass; [5]) | Plant response rating, Giant foxtail (giant foxtail; [1]) | Giant foxtail plant response rating (giant foxtail; [2])
7: Plant response rating, Morningglory (morningglory; [3]) | Bedstraw plant response rating (bedstraw; [4]) | Plant response rating, Wheat (wheat; [7]) | B. signalgrass plant response rating (surinam grass; [6])
9: Morningglory plant response rating (morningglory; [4]) | Wild oats plant response rating (wild oat; [6]) | Giant foxtail plant response rating (giant foxtail; [6])
3: Plant response rating, Morningglory (morningglory; [7]) | Plant response rating, Bedstraw (bedstraw; [3]) | Plant response rating, Bedstraw (bedstraw; [7]) | Plant response rating, Redroot pigweed (pigweed; [7]) | Plant response rating, Blackgrass (blackgrass; [1]) | Blackgrass plant response rating (blackgrass; [2]) | Blackgrass plant response rating (blackgrass; [5]) | Wheat plant response rating (wheat; [4]) | Wheat plant response rating (wheat; [6])
10: Plant response rating, Wild oats (wild oat; [7]) | Plant response rating, Blackgrass (blackgrass; [7]) | Plant response rating, B. signalgrass (surinam grass; [7]) | Plant response rating, Giant foxtail (giant foxtail; [7])
8: Blackgrass plant response rating (blackgrass; [6]) | Giant foxtail plant response rating (giant foxtail; [5])
